The source of these data is patent US8569509B2, “Thiazole-4-carboxylic acid esters and thioesters as plant protection agents” (priority 2008, dated 2013).

The test system of one data set is Plasmopara viticola. The experiment in a line: Plasmopara test (grapevine)/protective. It is filed as in vivo. The conditions noted are these: grapevine plants, protective, application rate 1 ppm, evaluation 6 days after inoculation. On the procedure: Plasmopara Test (Grapevine)/Protective
After the spray coating has dried on, the plants are inoculated with an aqueous spore suspension of Plasmopara viticola and then remain in an incubation cabin at about 20° C. and 100% relative atmospheric humidity for 1 day. The plants are then placed in a greenhouse at about 21° C. and about 90% atmospheric humidity for 4 days. The plants are then moistened and placed in an incubation cabin for 1 day.
Evaluation is carried out 6 days after the inoculation.
The compound `Cc1cc(C(F)(F)F)nn1CC(=O)N1CCC(c2nc(C(=O)OC3CCCc4ccccc43)cs2)CC1` (stereo not shown) [Ex. 6] came in with an Efficacy in % of 91%. Same read-out and setting: with `Cc1cc(C(F)(F)F)nn1CC(=O)N1CCC(c2nc(C(=O)N(C)C3CCCc4ccccc43)cs2)CC1` (stereo not shown) [drawing 26, reference compound] the figure was 72%.

A further data set concerns Phytophthora infestans.
Test: not given
The class given is in vivo. The conditions noted are these: tomato plants, protective, application rate 10 ppm, evaluation 3 days after inoculation.
Turning to `Cc1cc(C(F)(F)F)nn1CC(=O)N1CCC(c2nc(C(=O)OCc3ccccc3Cl)cs2)CC1` [Ex. 23], the Efficacy in % was found to be 94%. Take `Cc1cc(C(F)(F)F)nn1CC(=O)N1CCC(c2nc(C(=O)NCc3ccccc3Cl)cs2)CC1` [reference compound]: the Efficacy in % stood at 65%.

In the next data set the test system is Plasmopara viticola. The experiment in a line: Plasmopara test (grapevine)/curative. The class given is in vivo. The conditions noted are these: grapevine plants, curative, application rate 100 ppm, evaluation 6 days after inoculation.
As to `Cc1cc(C(F)(F)F)nn1CC(=O)N1CCC(c2nc(C(=O)OC3CCCc4ccccc43)cs2)CC1` (stereo not shown) [Ex. 6], the Efficacy in % came to 84%.

`Cc1cc(C(F)(F)F)nn1CC(=O)N1CCC(c2nc(C(=O)N(C)C3CCCc4ccccc43)cs2)CC1` (stereo not shown) [drawing 28, reference compound] came in with an Efficacy in % of 37%.

Test system in a further data set: not listed separately
In words: log P determination (HPLC, calibration with unbranched alkan-2-ones). It is filed as physicochemical. The note with it: * LC-MS determination in the acidic range at pH 2.7, mobile phases 0.1% aqueous formic acid and acetonitrile (0.1% formic acid), linear gradient 10% to 95% acetonitrile; reversed-phase C 18 HPLC. Here is the method:
The calibration is carried out using unbranched alkan-2-ones (having 3 to 16 carbon atoms) with known log P values (determination of the log P values by the retention times using linear interpolation between two successive alkanones). The lambda-maX values were determined in the maxima of the chromatographic signals using the UV spectra from 200 nm to 400 nm.
Regarding `C#CC1(OC(=O)c2csc(C3CCN(C(=O)C(C)(C)n4nc(C)cc4C)CC3)n2)CCCCC1` [compound 804], the log p is recorded as 3.73*. On the same count and under the same terms, with `CCCCC(CC)COC(=O)c1csc(C2CCN(C(=O)C(C)(C)n3nc(C)cc3C)CC2)n1` (stereo not shown) [compound 806] the figure was 5.08*; with `Cc1cc(C(F)(F)F)nn1CC(=O)N1CCC(c2nc(C(=O)Oc3cccc4ncccc34)cs2)CC1` [compound 807], 2.59*; with `Cc1cc(C(F)(F)F)nn1CC(=O)N1CCC(c2nc(C(=O)OC(c3ccccc3)c3ccccc3)cs2)CC1` [compound 808], 4.17*. In the case of `Cc1cc(C(F)(F)F)nn1CC(=O)N1CCC(c2nc(C(=O)Oc3cccc4ocnc34)cs2)CC1` [compound 809], the log p is listed as 2.81*. On the same count and under the same terms, under `COc1ccccc1OC(=O)c1csc(C2CCN(C(=O)Cn3nc(C(F)(F)F)cc3C)CC2)n1` [compound 814] stands 3.17*; under `Cc1cc(C(F)(F)F)nn1CC(=O)N1CCC(c2nc(C(=O)OC(c3ccccc3)C3CC3)cs2)CC1` (stereo not shown) [compound 815], 3.87*; under `COc1cccc(OC)c1OC(=O)c1csc(C2CCN(C(=O)Cn3nc(C(F)(F)F)cc3C)CC2)n1` [compound 816], 3.12*. Regarding `COc1ccccc1COC(=O)c1csc(C2CCN(C(=O)Cn3nc(C(F)(F)F)cc3C)CC2)n1` [compound 817], the log p is recorded as 3.44*. Consider `Cc1cc(C(F)(F)F)nn1CC(=O)N1CCC(c2nc(C(=O)OCc3c(Cl)cc(Cl)cc3Cl)cs2)CC1` [compound 818], for which the log p is listed as 4.53*. Still for that read-out and setting: under `Cc1cc(C(F)(F)F)nn1CC(=O)N1CCC(c2nc(C(=O)OCc3ccc(OC(F)(F)F)cc3)cs2)CC1` [compound 819] stands 3.99*; under `Cc1cc(C(F)(F)F)nn1CC(=O)N1CCC(c2nc(C(=O)Oc3ccccc3-c3ccccc3)cs2)CC1` [compound 821], 3.96*; under `Cc1cc(C(F)(F)F)nn1CC(=O)N1CCC(c2nc(C(=O)Oc3cccc(Oc4ccccc4)c3)cs2)CC1` [compound 824], 4.18*. The same measure, in the same setting: under `Cc1cc(C(F)(F)F)nn1CC(=O)N1CCC(c2nc(C(=O)Oc3ccc(Oc4ccccc4)cc3)cs2)CC1` [compound 825] stands 4.14*; under `C#CC1(OC(=O)c2csc(C3CCN(C(=O)Cn4nc(C(F)(F)F)cc4C)CC3)n2)CCCCC1` [compound 826], 3.76*. With `Cc1cc(C(F)(F)F)nn1CC(=O)N1CCC(c2nc(C(=O)OC3(C#N)CCCCC3)cs2)CC1` [compound 827], the log p is reported as 3.33*.

`Cc1cc(C(F)(F)F)nn1CC(=O)N1CCC(c2nc(C(=O)OC3CCC(C(C)(C)C)CC3)cs2)CC1` (stereo not shown) [compound 828]: the log p is recorded as 5.19*. Still for that read-out and setting: with `Cc1cc(C(F)(F)F)nn1CC(=O)N1CCC(c2nc(C(=O)OC3CC(C)CCC3C(C)C)cs2)CC1` (stereo not shown) [compound 829] the figure was 5.22*; with `Cc1cc(C(F)(F)F)nn1CC(=O)N1CCC(c2nc(C(=O)OC3CCC4(CC3)OCCO4)cs2)CC1` [compound 830], 2.90*.

For the compound `Cc1cc(C(F)(F)F)nn1CC(=O)N1CCC(c2nc(C(=O)OC3C(C)CCCC3C)cs2)CC1` (stereo not shown) [compound 831], the log p was 4.40*. Same read-out and setting: under `Cc1cc(C(F)(F)F)nn1CC(=O)N1CCC(c2nc(C(=O)OC3CCCCC3C)cs2)CC1` (stereo not shown) [compound 832] stands 4.12*. Same read-out and setting: under `CCCCCCCCOC(=O)c1csc(C2CCN(C(=O)Cn3nc(C(F)(F)F)cc3C)CC2)n1` [compound 833] stands 5.02*; under `COc1ccc(COC(=O)c2csc(C3CCN(C(=O)Cn4nc(C(F)(F)F)cc4C)CC3)n2)c(OC)c1` [compound 834], 3.33*; under `Cc1cc(C(F)(F)F)nn1CC(=O)N1CCC(c2nc(C(=O)OCc3c(F)cc(F)cc3F)cs2)CC1` [compound 835], 3.53*. Consider `Cc1cc(C(F)(F)F)nn1CC(=O)N1CCC(c2nc(C(=O)OCc3ccccc3C(F)(F)F)cs2)CC1` [compound 836], for which the log p was 3.84*. Consider `Cc1cc(C(F)(F)F)nn1CC(=O)N1CCC(c2nc(C(=O)OCc3ccccc3OC(F)(F)F)cs2)CC1` [compound 837], for which the log p was 3.95*. On the same count and under the same terms, with `CC(C)(C)c1cc(C(F)(F)F)n(CC(=O)N2CCC(c3nc(C(=O)OCC4CCCCC4)cs3)CC2)n1` [compound 847] the figure was 4.75*; with `CC(C)(C)c1cc(C(F)(F)F)nn1CC(=O)N1CCC(c2nc(C(=O)OCC3CCCCC3)cs2)CC1` [compound 848], 4.51*; with `CC(C)(C)c1cc(C(F)(F)C(F)(F)F)n(CC(=O)N2CCC(c3nc(C(=O)OCC4CCCCC4)cs3)CC2)n1` [compound 849], 5.08*. As to `CC(C)(C)c1cc(C(F)(F)C(F)(F)F)nn1CC(=O)N1CCC(c2nc(C(=O)OCC3CCCCC3)cs2)CC1` [compound 850], the log p was 4.94*. Regarding `CC(C)c1cc(C(F)(F)F)n(CC(=O)N2CCC(c3nc(C(=O)OCC4CCCCC4)cs3)CC2)n1` [compound 851], the log p is on record as 4.35*.

For the compound `CCc1cc(C(F)(F)F)n(CC(=O)N2CCC(c3nc(C(=O)OCC4CCCCC4)cs3)CC2)n1` [compound 852], the log p is listed as 3.99*. Still for that read-out and setting: under `Cc1cc(C(F)(F)F)nn1CC(=O)N1CCC(c2nc(C(=O)O[C@H]3CCCc4ccccc43)cs2)CC1` [compound 853] stands 4.06*.

Staying with this data set, now noted: pH 2.7; read-out: log P (pH 2.7).
As to `O=C(OC1CCCCC1)c1csc(C2CCN(C(=O)Cn3nc(C(F)F)cc3C(F)F)CC2)n1` [compound 811, Cyclohexyl 2-(1-{[3,5-bis(difluoromethyl)-1H-pyrazol-1-yl]acetyl}piperidin-4-yl)-1,3-thiazole-4-carboxylate], the chromatographic logP came out at 3.64. Turning to `O=C(Oc1cccc2ccccc12)c1csc(C2CCN(C(=O)Cn3nc(C(F)F)cc3C(F)F)CC2)n1` [compound 813, 1-Naphthyl 2-(1-{[3,5-bis(difluoromethyl)-1H-pyrazol-1-yl]acetyl}piperidin-4-yl)-1,3-thiazole-4-carboxylate], the chromatographic logP is 3.64.

Turning to `Cc1cc(C(F)(F)F)nn1CC(=O)N1CCC(c2nc(C(=O)OCc3ccccc3Br)cs2)CC1` [compound 820, 2-Bromobenzyl 2-(1-{[5-methyl-3-(trifluoromethyl)-1H-pyrazol-1-yl]acetyl}piperidin-4-yl)-1,3-thiazole-4-carboxylate], the chromatographic logP was 3.8. Same read-out and setting: under `O=C(OC1CCCCC1)c1csc(C2CCN(C(=S)Cn3nc(C(F)F)cc3C(F)F)CC2)n1` [compound 854, Cyclohexyl 2-(1-{2-[3,5-bis(difluoromethyl)-1H-pyrazol-1-yl]ethanethioyl}piperidin-4-yl)-1,3-thiazole-4-carboxylate] stands 4.23.

The same data set, now with this note: reversed-phase (C18) HPLC column; * LC-MS determination in the acidic range, pH 2.7, 0.1% aqueous formic acid and acetonitrile, linear gradient 10% to 95% acetonitrile; read-out: log p.
Turning to `Cc1cc(C(F)(F)F)nn1CC(=O)N1CCC(c2nc(C(=O)OCc3ccccc3Cl)cs2)CC1` [Ex. 23], the chromatographic logP was 3.7.

The data set is the same for the next values; noted with them: reversed-phase (C18) HPLC column; ** determination in the acidic range, pH 2.3, 0.1% aqueous phosphoric acid and acetonitrile, linear gradient 10% to 95% acetonitrile; read-out: log p.
With `Cc1cc(C(F)(F)F)nn1CC(=O)N1CCC(c2nc(C(=O)OC3CCCc4ccccc43)cs2)CC1` (stereo not shown) [Ex. 6], the chromatographic logP was 4.01.

Staying with this data set, now noted: reversed-phase C18 HPLC column; * LC-MS determination in the acidic range at pH 2.7, mobile phases 0.1% aqueous formic acid and acetonitrile (0.1% formic acid), linear gradient 10% to 95% acetonitrile; reversed-phase C 18 HPLC; read-out: log p.
Take `O=C(OC1CCCCC1)c1csc(C2CCN(C(=O)Cn3nc(C(F)F)cc3C(F)F)CC2)n1` [compound 811, Cyclohexyl 2-(1-{[3,5-bis(difluoromethyl)-1H-pyrazol-1-yl]acetyl}piperidin-4-yl)-1,3-thiazole-4-carboxylate]: the chromatographic logP was 3.64. On the same count and under the same terms, under `O=C(Oc1cccc2ccccc12)c1csc(C2CCN(C(=O)Cn3nc(C(F)F)cc3C(F)F)CC2)n1` [compound 813, 1-Naphthyl 2-(1-{[3,5-bis(difluoromethyl)-1H-pyrazol-1-yl]acetyl}piperidin-4-yl)-1,3-thiazole-4-carboxylate] stands 3.64; under `Cc1cc(C(F)(F)F)nn1CC(=O)N1CCC(c2nc(C(=O)OCc3ccccc3Br)cs2)CC1` [compound 820, 2-Bromobenzyl 2-(1-{[5-methyl-3-(trifluoromethyl)-1H-pyrazol-1-yl]acetyl}piperidin-4-yl)-1,3-thiazole-4-carboxylate], 3.8; under `O=C(OC1CCCCC1)c1csc(C2CCN(C(=S)Cn3nc(C(F)F)cc3C(F)F)CC2)n1` [compound 854, Cyclohexyl 2-(1-{2-[3,5-bis(difluoromethyl)-1H-pyrazol-1-yl]ethanethioyl}piperidin-4-yl)-1,3-thiazole-4-carboxylate], 4.23.
